Results from patent US10065990B2, “Cyclic peptide compound, and preparation method, pharmaceutical composition and use thereof” (HANGZHOU GUANYU BIO-MEDICAL CO., LTD, priority 2013, dated 2018).
Where two headings read alike, the source gives them in different places.

Columns and labels:
HDAC7 = molecular target: T1, HDAC7 (Homo sapiens, UniProt Q8WUI4); assay: HDAC biochemical activity measurement (fluorescent substrate deacetylation);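 further: fluorogenic deacetylation assay using acetyl-lysine substrate at 20 µM, enzyme and compound incubated 30 min at 37 °C, then developer added, fluorescence read at 360/460 nm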; conditions: HDAC7; 37° C. 30 minutes
T1 sequence (Q8WUI4 1-952): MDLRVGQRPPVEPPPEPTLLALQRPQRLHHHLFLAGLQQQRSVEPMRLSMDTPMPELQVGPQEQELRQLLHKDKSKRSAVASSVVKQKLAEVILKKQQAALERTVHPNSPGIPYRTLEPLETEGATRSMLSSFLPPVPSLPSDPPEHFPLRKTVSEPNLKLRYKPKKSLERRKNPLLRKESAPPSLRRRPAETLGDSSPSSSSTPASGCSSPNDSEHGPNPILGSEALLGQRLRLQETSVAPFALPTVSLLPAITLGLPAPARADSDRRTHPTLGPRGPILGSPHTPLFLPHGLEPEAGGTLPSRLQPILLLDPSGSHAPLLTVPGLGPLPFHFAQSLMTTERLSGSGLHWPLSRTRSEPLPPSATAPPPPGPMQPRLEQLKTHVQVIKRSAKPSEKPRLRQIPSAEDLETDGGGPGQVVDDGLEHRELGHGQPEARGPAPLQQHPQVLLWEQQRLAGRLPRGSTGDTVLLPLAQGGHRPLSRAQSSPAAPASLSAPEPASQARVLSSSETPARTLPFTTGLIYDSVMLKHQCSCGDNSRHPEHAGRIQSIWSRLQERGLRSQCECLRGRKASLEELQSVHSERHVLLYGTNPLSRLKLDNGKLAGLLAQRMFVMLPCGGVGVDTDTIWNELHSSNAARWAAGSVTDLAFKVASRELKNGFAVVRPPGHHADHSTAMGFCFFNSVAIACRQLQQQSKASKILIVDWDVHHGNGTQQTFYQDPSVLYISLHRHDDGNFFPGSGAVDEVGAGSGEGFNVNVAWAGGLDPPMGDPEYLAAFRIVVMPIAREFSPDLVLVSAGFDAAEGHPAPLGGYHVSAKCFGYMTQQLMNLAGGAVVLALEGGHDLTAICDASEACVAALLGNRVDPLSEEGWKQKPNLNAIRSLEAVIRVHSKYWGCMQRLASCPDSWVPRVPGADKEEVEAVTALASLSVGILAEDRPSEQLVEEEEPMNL

HDAC11 = molecular target: T2, HDAC11 (Homo sapiens, UniProt Q96DB2); assay: as above;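 further: HDAC11 enzyme acting on an acetyl-lysine fluorogenic substrate, then a developer frees the fluorophore, read at excitation 360 nm and emission 460 nm, IC50 over a compound dilution series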
T2 sequence (Q96DB2 1-347): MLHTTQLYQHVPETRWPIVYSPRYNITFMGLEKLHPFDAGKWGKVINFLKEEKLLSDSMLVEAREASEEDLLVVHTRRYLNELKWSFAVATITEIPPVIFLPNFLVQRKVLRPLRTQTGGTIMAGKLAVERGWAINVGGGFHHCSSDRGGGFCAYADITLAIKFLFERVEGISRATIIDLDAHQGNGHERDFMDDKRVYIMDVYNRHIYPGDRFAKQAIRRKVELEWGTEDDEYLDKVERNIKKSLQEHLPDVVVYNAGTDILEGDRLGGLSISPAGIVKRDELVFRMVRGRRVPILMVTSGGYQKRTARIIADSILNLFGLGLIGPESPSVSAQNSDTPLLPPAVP
Description: (§2) The chemical activity of the compound is determined according to the degree of deacetylation inhibition of the HDAC enzyme. This experiment measured the degree of deacetylation related to tumor proliferation and metastasis of HDAC1, HDAC2, HDAC3, HDAC8, HDAC11 five subtypes HDAC enzymes. After the substrate containing an acetylated lysine side chain and HDAC enzyme are labeled with a fluorescent label, the fluorescent substrate is de acetyl. The fluorescent labeled substrate is cleaved by the enzyme, and the fluorescent substance is released, which generates 460 nm emission light under the excitation of 360 nm light.
(§3) HDAC substrate was diluted with reaction buffer to 200M (reaction concentration of 20M), the HDAC enzyme was diluted to the appropriate concentration, then added different concentrations of the test compounds and acted at 37° C. 30 minutes, and then added the same volume of 2-times concentration substrate developing solution (developer), incubated at room temperature for 15 minutes.

HDAC2 = HDAC2 (Homo sapiens, UniProt Q92769); assay: as above; conditions: 37° C. 30 minutes;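 further: HDAC2 enzyme with an acetyl-lysine fluorescent substrate, then developer added, fluorescence read at excitation 360 nm and emission 460 nm, inhibition measured across several compound concentrations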
Sequence of HDAC2 (Q92769 whole entry, species assumed): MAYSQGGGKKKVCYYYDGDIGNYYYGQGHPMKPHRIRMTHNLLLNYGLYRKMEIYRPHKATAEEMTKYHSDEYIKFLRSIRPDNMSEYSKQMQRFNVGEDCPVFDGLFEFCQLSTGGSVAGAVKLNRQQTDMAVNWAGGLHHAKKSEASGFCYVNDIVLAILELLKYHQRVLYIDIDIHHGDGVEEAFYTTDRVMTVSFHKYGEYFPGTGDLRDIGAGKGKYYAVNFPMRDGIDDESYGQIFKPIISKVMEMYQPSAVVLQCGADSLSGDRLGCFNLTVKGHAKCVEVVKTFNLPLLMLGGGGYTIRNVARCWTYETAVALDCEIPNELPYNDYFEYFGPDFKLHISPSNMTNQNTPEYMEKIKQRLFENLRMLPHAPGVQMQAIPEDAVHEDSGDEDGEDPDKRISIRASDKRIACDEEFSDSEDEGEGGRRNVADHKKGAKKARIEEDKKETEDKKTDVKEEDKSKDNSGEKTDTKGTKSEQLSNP
Description: as §2, §3

[1] = test system: SGC-7901 (human gastric cancer cells); assay: MTT cancer cell growth inhibition; assay type: cell-based; conditions: Homo sapiens, SGC-7901, 72 h, MTT, 72 hours incubation, SGC-7901 cells; read-out: GI50 SGC-7901
Method in brief: (§1)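 72 h exposure, final drug 10^−5–10^−10 M, triplicate wells; 1500 cells/well plated the day before; medium DMEM or 1640 + 10% FBS; 37° C./5% CO2. MTT (5 mg/ml stock) 4 h, DMSO solubilisation, A570 → % viability → GI50.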

[2] = test system: KBM5-T315I (human chronic myelogenous leukemia); assay: MTT cancer cell growth inhibition; assay type: cell-based; conditions: Homo sapiens, 72 h, MTT, 72 hours incubation, KBM5-T315I cells; read-out: GI50 KBM5-T315I
Method in brief: as §1

[3] = test system: Hela (human cervical cancer cells); assay: MTT cancer cell growth inhibition; assay type: cell-based; conditions: Homo sapiens, HeLa, 72 h, MTT, 72 hours incubation; read-out: GI50 Hela
Method in brief: as §1

[4] = test system: MDA-MB-231 (breast cancer cells); assay: MTT cancer cell growth inhibition; assay type: cell-based; conditions: Homo sapiens, MDA-MB-231, 72 h, read-out: GI50 MDA-MB-231, MTT, 72 hours incubation, MDA-MB-231 cells
Method in brief: as §1

[5] = test system: HT1080 (human fibrosarcoma cells); assay: MTT cancer cell growth inhibition; assay type: cell-based; conditions: Homo sapiens, HT-1080, 72 h, MTT, 72 hours incubation; read-out: GI50 HT1
Method in brief: as §1

[6] = test system: K562 (human leukemia cells); assay: MTT cancer cell growth inhibition; assay type: cell-based; conditions: MTT, 72 hours incubation, K562 cells, read-out: GI50 K562
Method in brief: as §1

[7] = test system: KBM-5 (human chronic myelogenous leukemia); assay: MTT cancer cell growth inhibition; assay type: cell-based; conditions: Homo sapiens, KBM5, 72 h, MTT, 72 hours incubation, KBM-5 cells; read-out: GI50 KBM-5
Method in brief: as §1

[8] = test system: H1975 (non-small cell lung adenocarcinoma); assay: MTT cancer cell growth inhibition; assay type: cell-based; conditions: Homo sapiens, NCI-H1975, 72 h, MTT, 72 hours incubation, H1975 cells; read-out: GI50 H1975
Method in brief: as §1

[9] = test system: N-87 (human gastric cancer cells); assay: MTT cancer cell growth inhibition; assay type: cell-based; conditions: Homo sapiens, 72 h, MTT, 72 hours incubation, N-87 cells; read-out: GI50 N-87
Method in brief: as §1

[10] = test system: HCC827 (human non-small cell lung cancer cells); assay: MTT cancer cell growth inhibition; assay type: cell-based; conditions: Homo sapiens, HCC827, 72 h, MTT, 72 hours incubation, HCC827 cells; read-out: GI50 HCC827
Method in brief: as §1

[11] = read-out: IC50 HDAC11, HDAC11, 37° C. 30 minutes

Row | Compound | IC50 HDAC7 (HDAC7) | IC50 (HDAC11; [11]) | IC50 (HDAC2) | GI50 [1] | GI50 [2] | GI50 [3] | GI50 [4] | GI50 [5] | GI50 ([6]; Homo sapiens, K562, 72 h) | GI50 [7] | GI50 [8] | GI50 [9] | GI50 [10] | IC50 (HDAC11) | GI50 [6]
1 | C/C=C1\NC(=O)c2cccc(n2)CNC(=O)C[C@@H](/C=C/CCSC(C)=O)OC(=O)[C@H](Cc2cccc3ccccc23)NC1=O [Compound 17] | no activity | 97 nM | 61 nM | 53 nM | 28 nM | 11000 nM | 79 nM | 970 nM | 32 nM | 81 nM | 42 nM | 43 nM | 43 nM |  | 
2 | C/C=C1\NC(=O)c2cc(F)cc(n2)CNC(=O)C[C@@H](/C=C/CCSC(C)=O)OC(=O)[C@H](C(C)C)NC1=O [Compound 94] | no activity |  | 35 nM | 41 nM | 35 nM | 60 nM | 33 nM | 80 nM |  | 61 nM | 34 nM | 37 nM | 84 nM | 91 nM | 39 nM
3 | C/C=C1\NC(=O)c2cccc(n2)CNC(=O)C[C@@H](/C=C/CCSC(C)=O)OC(=O)[C@H](CC)NC1=O [Compound 10] | no activity |  | 67 nM | 23 nM | 24 nM | 70 nM | 98 nM | 80 nM | 73 nM | 61 nM | 24 nM | 38 nM | 26 nM | 103 nM | 
4 | C/C=C1\NC(=O)c2cccc(n2)CCNC(=O)C[C@@H](/C=C/CCSC(C)=O)OC(=O)[C@H](C(C)C)NC1=O [Example 26] | no activity |  | 64 nM | 37 nM | 31 nM | 37000 nM | 98 nM | 18000 nM | 17 nM |  | 31 nM | 39 nM | 55 nM | 94 nM | 
5 | C/C=C1\NC(=O)c2cc(F)cc(n2)CNC(=O)C[C@@H](/C=C/CCSC(=O)CCCCCCC)OC(=O)[C@H](Cc2ccccc2)NC1=O [Compound 70] | no activity | 97 nM | 43 nM | 43 nM | 37 nM | 90 nM | 36 nM |  | 52 nM | 93 nM | 62 nM | 53 nM |  |  | 
6 | C/C=C1\NC(=O)c2cc(F)cc(n2)CNC(=O)C[C@@H](/C=C/CCSC(=O)CCC)OC(=O)[C@H](C(C)C)NC1=O [Compound 43] | no activity | 94 nM | 51 nM | 52 nM | 54 nM | 80 nM | 36 nM | 70 nM | 52 nM | 81 nM | 62 nM | 38 nM |  |  | 
